Experimental data from patent US8168651B2, “Protein kinase modulators” (Cylene Pharmaceuticals, Inc., priority 2008, dated 2012).
pIC50: −log10 of the molar value. Each block holds one compound with its values, some of them ahead of it.

Legend:
[1] = target: each individual kinase of the panel (Homo sapiens, UniProt O60285); assay: Standardized radiometric kinase assays, percentage of activity at 0.5 μM; conditions: for % Activity: ARK5(h);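 as to all read-outs here: Read-out is ³³P-labelled substrate protein phosphorylated by each kinase, captured on filters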
[2] = target: each individual kinase of the panel (Homo sapiens, UniProt O75676); assay: as above; conditions: for % Activity: MSK2(h)
[3] = target: each individual kinase of the panel (Homo sapiens, UniProt P00533, L861Q); assay: as above; conditions: for % Activity: EGFR(L861Q)(h)
[4] = target: each individual kinase of the panel (Homo sapiens, UniProt P07332); assay: as above; conditions: for % Activity: Fes(h)
[5] = target: each individual kinase of the panel (Homo sapiens, UniProt P09619); assay: as above; conditions: for % Activity: PDGFRβ(h)
Chain of each individual kinase of the panel (Homo sapiens, UniProt P09619) (P09619 33-1106 limits assumed): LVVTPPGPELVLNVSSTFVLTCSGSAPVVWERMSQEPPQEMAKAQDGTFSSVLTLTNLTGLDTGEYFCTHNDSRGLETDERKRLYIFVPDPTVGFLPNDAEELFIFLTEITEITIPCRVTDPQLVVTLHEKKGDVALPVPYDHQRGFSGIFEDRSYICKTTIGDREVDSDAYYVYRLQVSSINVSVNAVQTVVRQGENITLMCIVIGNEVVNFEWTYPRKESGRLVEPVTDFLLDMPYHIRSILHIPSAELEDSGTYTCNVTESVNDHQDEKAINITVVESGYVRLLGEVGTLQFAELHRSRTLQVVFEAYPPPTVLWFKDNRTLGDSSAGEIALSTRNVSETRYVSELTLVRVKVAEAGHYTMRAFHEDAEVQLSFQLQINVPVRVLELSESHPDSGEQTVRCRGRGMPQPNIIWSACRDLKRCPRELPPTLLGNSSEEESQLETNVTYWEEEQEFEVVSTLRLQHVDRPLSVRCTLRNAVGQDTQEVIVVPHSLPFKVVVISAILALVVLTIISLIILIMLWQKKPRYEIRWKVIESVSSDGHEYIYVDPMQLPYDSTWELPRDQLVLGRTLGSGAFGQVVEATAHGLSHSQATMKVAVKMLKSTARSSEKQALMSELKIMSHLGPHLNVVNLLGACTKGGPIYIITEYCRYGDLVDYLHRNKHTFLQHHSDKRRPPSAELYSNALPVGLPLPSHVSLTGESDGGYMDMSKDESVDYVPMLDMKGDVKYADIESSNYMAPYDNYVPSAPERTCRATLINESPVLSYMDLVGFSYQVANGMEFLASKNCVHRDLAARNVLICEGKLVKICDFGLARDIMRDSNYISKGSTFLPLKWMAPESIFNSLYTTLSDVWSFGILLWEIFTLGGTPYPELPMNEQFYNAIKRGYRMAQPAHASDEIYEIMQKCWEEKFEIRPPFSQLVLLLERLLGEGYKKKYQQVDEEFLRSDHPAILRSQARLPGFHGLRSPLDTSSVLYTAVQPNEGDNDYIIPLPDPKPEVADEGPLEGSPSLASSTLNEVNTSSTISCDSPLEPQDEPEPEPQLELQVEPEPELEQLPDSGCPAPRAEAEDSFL

[6] = target: each individual kinase of the panel (Homo sapiens, UniProt P23443); assay: as above; conditions: for % Activity: p70S6K(h)
[7] = target: each individual kinase of the panel (Homo sapiens, UniProt P31749); assay: as above; conditions: for % Activity: PKBα(h)
[8] = target: each individual kinase of the panel (Homo sapiens, UniProt P36888); assay: as above; conditions: for % Activity: Flt3(h)
Chain of each individual kinase of the panel (Homo sapiens, UniProt P36888) (P36888 27-993 limits assumed): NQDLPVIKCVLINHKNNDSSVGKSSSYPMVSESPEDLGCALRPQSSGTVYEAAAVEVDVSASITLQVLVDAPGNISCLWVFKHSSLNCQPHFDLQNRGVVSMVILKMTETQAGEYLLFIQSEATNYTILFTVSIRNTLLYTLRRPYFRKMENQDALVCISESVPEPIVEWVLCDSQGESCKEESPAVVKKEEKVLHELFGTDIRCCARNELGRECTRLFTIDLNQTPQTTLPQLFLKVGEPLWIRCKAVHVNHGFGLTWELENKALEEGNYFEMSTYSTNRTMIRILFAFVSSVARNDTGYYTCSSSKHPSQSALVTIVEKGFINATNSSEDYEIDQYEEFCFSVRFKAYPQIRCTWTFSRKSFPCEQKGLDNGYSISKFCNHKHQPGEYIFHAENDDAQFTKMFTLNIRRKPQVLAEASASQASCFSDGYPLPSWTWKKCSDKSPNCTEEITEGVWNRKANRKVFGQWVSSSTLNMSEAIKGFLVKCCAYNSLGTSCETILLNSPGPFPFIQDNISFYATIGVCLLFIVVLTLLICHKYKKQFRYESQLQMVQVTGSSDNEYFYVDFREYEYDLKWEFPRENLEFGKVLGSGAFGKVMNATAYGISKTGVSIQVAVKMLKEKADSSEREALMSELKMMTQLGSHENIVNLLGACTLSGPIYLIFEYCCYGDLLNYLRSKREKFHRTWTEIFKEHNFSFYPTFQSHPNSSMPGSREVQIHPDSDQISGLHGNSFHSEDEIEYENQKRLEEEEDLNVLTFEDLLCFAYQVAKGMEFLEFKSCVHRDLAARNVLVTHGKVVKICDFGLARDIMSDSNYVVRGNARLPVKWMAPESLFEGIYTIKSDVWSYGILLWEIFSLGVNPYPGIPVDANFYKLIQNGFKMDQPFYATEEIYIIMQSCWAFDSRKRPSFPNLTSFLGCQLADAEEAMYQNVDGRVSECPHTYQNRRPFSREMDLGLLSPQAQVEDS

[9] = target: each individual kinase of the panel (Homo sapiens, UniProt P50613); assay: as above; conditions: for % Activity: CDK7/cyclinH/MAT1(h)
Chain of each individual kinase of the panel (Homo sapiens, UniProt P50613) (P50613 2-346 limits assumed): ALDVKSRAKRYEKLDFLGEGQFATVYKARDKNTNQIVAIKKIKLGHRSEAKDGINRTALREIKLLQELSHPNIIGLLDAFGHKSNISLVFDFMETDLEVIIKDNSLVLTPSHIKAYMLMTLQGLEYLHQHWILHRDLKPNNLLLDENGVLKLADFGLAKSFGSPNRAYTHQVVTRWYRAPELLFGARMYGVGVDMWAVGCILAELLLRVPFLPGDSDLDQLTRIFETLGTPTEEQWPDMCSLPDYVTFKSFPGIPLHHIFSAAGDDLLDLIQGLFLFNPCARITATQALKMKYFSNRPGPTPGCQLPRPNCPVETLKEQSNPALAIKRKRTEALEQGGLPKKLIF

[10] = target: each individual kinase of the panel (Homo sapiens, UniProt P51955); assay: as above
[11] = target: each individual kinase of the panel (Homo sapiens, UniProt P53350); assay: as above; conditions: Plk1(h)
[12] = target: each individual kinase of the panel (Homo sapiens, UniProt Q02750); assay: as above; conditions: for % Activity: MEK1(h)
[13] = target: each individual kinase of the panel (Homo sapiens, UniProt Q04912); assay: as above; conditions: for % Activity: Ron(h)
Chain of each individual kinase of the panel (Homo sapiens, UniProt Q04912) (Q04912 25-304 limits assumed): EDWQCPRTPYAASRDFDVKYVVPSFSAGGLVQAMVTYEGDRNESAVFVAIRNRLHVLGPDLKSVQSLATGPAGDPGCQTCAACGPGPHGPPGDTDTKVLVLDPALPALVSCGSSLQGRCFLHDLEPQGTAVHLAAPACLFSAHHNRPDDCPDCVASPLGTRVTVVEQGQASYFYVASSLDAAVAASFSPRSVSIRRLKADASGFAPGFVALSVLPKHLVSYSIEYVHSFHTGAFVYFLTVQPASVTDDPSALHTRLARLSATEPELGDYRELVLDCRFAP
Chain of each individual kinase of the panel (Homo sapiens, UniProt Q04912) (Q04912 310-1400 limits assumed): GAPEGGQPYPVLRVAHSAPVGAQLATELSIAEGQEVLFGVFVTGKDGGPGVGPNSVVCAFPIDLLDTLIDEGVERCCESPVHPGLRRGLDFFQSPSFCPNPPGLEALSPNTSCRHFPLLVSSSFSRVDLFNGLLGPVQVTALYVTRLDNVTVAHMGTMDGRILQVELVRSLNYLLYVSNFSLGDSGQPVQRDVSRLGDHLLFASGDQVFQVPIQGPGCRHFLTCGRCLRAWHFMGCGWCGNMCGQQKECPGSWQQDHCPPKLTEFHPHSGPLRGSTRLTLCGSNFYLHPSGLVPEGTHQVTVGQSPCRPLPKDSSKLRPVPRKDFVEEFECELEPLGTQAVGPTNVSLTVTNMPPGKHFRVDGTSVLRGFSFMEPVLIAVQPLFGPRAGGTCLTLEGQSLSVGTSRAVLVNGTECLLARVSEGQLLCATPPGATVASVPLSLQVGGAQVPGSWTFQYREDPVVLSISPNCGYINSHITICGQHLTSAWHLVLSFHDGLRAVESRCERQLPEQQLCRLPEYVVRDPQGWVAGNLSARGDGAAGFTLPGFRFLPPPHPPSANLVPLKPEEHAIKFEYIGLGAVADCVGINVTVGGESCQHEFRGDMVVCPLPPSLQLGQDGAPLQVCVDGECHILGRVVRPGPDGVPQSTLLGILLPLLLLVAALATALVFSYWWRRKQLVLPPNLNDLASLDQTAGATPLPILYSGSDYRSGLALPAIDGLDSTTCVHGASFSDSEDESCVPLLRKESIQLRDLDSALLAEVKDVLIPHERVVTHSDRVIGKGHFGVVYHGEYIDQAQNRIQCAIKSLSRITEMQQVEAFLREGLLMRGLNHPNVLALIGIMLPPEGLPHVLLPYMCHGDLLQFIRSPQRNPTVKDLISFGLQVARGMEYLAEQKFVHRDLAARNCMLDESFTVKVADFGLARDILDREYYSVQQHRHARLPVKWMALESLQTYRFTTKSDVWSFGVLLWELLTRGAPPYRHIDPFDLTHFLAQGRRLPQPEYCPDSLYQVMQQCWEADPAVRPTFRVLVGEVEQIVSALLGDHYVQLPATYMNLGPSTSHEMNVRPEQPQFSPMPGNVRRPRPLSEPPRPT

[14] = target: each individual kinase of the panel (Homo sapiens, UniProt Q06418); assay: as above; conditions: for % Activity: Rse(h)
[15] = target: each individual kinase of the panel (Homo sapiens, UniProt Q15375); assay: as above; conditions: for % Activity: EphA7(h)
Chain of each individual kinase of the panel (Homo sapiens, UniProt Q15375) (Q15375 28-998 limits assumed): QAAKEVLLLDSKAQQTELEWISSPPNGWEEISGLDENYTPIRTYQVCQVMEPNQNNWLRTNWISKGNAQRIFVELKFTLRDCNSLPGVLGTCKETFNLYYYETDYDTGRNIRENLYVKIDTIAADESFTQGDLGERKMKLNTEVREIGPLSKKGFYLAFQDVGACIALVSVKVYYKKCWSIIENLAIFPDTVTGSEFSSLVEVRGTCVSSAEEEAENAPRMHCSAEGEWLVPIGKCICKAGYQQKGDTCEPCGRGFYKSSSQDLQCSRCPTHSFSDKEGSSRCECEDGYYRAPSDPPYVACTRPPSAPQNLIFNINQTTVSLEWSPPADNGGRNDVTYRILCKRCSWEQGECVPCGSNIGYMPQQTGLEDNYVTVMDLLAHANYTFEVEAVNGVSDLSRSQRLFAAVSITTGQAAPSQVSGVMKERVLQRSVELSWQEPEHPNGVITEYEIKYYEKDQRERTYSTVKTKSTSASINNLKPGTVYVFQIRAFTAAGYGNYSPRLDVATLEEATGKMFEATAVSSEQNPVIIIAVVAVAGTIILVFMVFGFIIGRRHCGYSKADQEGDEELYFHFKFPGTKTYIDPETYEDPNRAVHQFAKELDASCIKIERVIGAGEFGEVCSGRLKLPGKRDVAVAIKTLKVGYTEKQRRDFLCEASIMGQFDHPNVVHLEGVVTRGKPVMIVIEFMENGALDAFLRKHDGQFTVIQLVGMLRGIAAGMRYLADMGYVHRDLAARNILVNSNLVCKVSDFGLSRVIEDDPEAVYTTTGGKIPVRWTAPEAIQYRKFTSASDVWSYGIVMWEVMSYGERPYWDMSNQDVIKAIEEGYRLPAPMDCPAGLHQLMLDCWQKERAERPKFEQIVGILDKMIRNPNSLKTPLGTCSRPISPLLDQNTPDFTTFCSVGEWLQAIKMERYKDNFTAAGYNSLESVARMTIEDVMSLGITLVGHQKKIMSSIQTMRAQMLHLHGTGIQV

[16] = target: each individual kinase of the panel (Homo sapiens, UniProt Q92630); assay: as above; conditions: for % Activity: DYRK2(h)
[17] = target: each individual kinase of the panel (Homo sapiens, UniProt Q96SB4); assay: as above; conditions: for % Activity: SRPK1(h)
[18] = target: each individual kinase of the panel (Homo sapiens, UniProt Q99683); assay: as above; conditions: for % Activity: ASK1(h)
[19] = target: each individual kinase of the panel (Homo sapiens, UniProt Q9NYY3); assay: as above; conditions: for % Activity: Snk(h)
[20] = target: each individual kinase of the panel (Homo sapiens, UniProt Q9UEE5); assay: as above; conditions: for % Activity: DRAK1(h)
[21] = target: each individual kinase of the panel (Homo sapiens, UniProt Q9Y6M4); assay: as above; conditions: for % Activity: CK1γ3(h)
[22] = tested on: each individual kinase of the panel; assay: as above; conditions: for % Activity: MAPK1(h)
[23] = target: other protein kinases (each individual kinase); assay: Standardized radiometric kinase assays, IC50 over 10 drug concentrations; assay type: biochemical; conditions: estimated
[24] = target: each individual kinase of the panel (Homo sapiens, UniProt P51813); assay: Standardized radiometric kinase assays, percentage of activity at 0.5 μM;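 also: Read-out is ³³P-labelled substrate protein phosphorylated by each kinase, captured on filters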
[25] = target: each individual kinase of the panel (Homo sapiens, UniProt Q13882); assay: as above
[26] = target: each individual kinase of the panel (Mus musculus, UniProt P16277); assay: as above
[27] = target: each individual kinase of the panel (Homo sapiens, UniProt P42684); assay: as above
[28] = target: each individual kinase of the panel (Homo sapiens, UniProt Q9UL54); assay: as above
[29] = target: each individual kinase of the panel (Homo sapiens, UniProt Q9Y5S2); assay: as above

ARK5 percentage of activity [1]: 14% | MSK2 percentage of activity [2]: 41% | EGFR(L861Q) percentage of activity [3]: 59% | FES percentage of activity [4]: 1% | PDGFRB percentage of activity [5]: −2% | p70S6K percentage of activity [6]: 36% | AKT1 percentage of activity [7]: 7% | FLT3 percentage of activity [8]: 90% | CDK7/cyclinH/MAT1 percentage of activity [9]: 36% | BMX percentage of activity [24]: 8% | NEK2 percentage of activity [10]: 73% | MEK1 percentage of activity [12]: 4% | RON percentage of activity [13]: 9% | TYRO3 percentage of activity [14]: 22% | BRK percentage of activity [25]: 18% | EPHA7 percentage of activity [15]: 5% | DYRK2 percentage of activity [16]: 55% | SRPK1 percentage of activity [17]: 63% | ASK percentage of activity [18]: −1% | PLK2 percentage of activity [19]: 30% | DRAK1 percentage of activity [20]: 65% | CK1 gamma 3 percentage of activity [21]: 32% | Blk(m) percentage of activity [26]: 33%
SMILES: C#Cc1cccc(Nc2nc3cc(C(=O)O)ccc3c3cnccc23)c1 [drawing 1137]

ARK5 percentage of activity [1]: 5% | MSK2 percentage of activity [2]: 9% | EGFR(L861Q) percentage of activity [3]: 70% | FES percentage of activity [4]: −2% | PDGFRB percentage of activity [5]: 3% | p70S6K percentage of activity [6]: 8% | AKT1 percentage of activity [7]: 7% | FLT3 percentage of activity [8]: 100% | CDK7/cyclinH/MAT1 percentage of activity [9]: 57% | NEK2 percentage of activity [10]: 13% | MEK1 percentage of activity [12]: 8% | RON percentage of activity [13]: −3% | TYRO3 percentage of activity [14]: 2% | EPHA7 percentage of activity [15]: 0% | DYRK2 percentage of activity [16]: 82% | SRPK1 percentage of activity [17]: 7% | ASK percentage of activity [18]: 2% | PLK2 percentage of activity [19]: 9% | DRAK1 percentage of activity [20]: −5% | CK1 gamma 3 percentage of activity [21]: −5%
SMILES: NC(=O)c1ccc2c(c1)nc(Nc1cccc(Cl)c1)c1ccncc12 [drawing 1138]

The next lines start with the compound.

SMILES: NC(=O)c1cccc2c1nc(Nc1cccc(Cl)c1)c1ccncc12 [B]
% Activity [1]: 98% | % Activity [2]: 65% | % Activity [3]: 54% | % Activity [4]: 94% | % Activity [5]: 94% | % Activity [6]: 87% | % Activity [7]: 90% | % Activity [8]: 7% | % Activity [9]: 17% | % Activity ([10]; NEK2(h)): 95% | % Activity [11]: 76% | % Activity [12]: 88% | % Activity [13]: 95% | % Activity [14]: 87% | % Activity [15]: 90% | % Activity [16]: 5% | % Activity [17]: 91% | % Activity [18]: 93% | % Activity [19]: 82% | % Activity [20]: 15% | % Activity [21]: 38% | % Activity [22]: 86%

SMILES: Clc1ccccc1Nc1nc2c(-c3nnc[nH]3)cccc2c2cnccc12 [A]
pIC50 ([23]; Flt3(h)): 6.98 | pIC50 ([23]; Pim-1(h)): 9.00 | pIC50 ([23]; Pim-2(h)): 8.22 | pIC50 ([23]; Pim-3(h)): 7.07 | pIC50 ([23]; Rsk1(h)): 7.39 | pIC50 ([23]; Rsk2(h)): 7.14 | pIC50 ([23]; Rsk3(h)): 7.14 | pIC50 ([23]; Rsk4(h)): 7.43 | % Activity [1]: 39% | % Activity [2]: 51% | % Activity [3]: 60% | % Activity [4]: 84% | % Activity [5]: 94% | % Activity [6]: 77% | % Activity [7]: 98% | % Activity [8]: 5% | % Activity [9]: 50% | % Activity [11]: 96% | % Activity [12]: 72% | % Activity [13]: 99% | % Activity [14]: 109% | % Activity [15]: 96% | % Activity [16]: −4% | % Activity [17]: 107% | % Activity [18]: 92% | % Activity [19]: 79% | % Activity [20]: 75% | % Activity [21]: 21% | % Activity [22]: 77%

SMILES: C#Cc1cccc(Nc2nc3cc(C(=O)O)ccc3c3cncnc23)c1 [drawing 1135]
ARK5 percentage of activity [1]: −8% | MSK2 percentage of activity [2]: 44% | FES percentage of activity [4]: −39% | PDGFRB percentage of activity [5]: −10% | p70S6K percentage of activity [6]: 20% | AKT1 percentage of activity [7]: −4% | FLT3 percentage of activity [8]: 58% | ABL2 percentage of activity [27]: 2% | CDK7/cyclinH/MAT1 percentage of activity [9]: 23% | BMX percentage of activity [24]: −18% | NEK2 percentage of activity [10]: 23% | MEK1 percentage of activity [12]: −36% | RON percentage of activity [13]: −6% | TYRO3 percentage of activity [14]: −9% | BRK percentage of activity [25]: −10% | EPHA7 percentage of activity [15]: 1% | DYRK2 percentage of activity [16]: 50% | SRPK1 percentage of activity [17]: 34% | ASK percentage of activity [18]: −16% | PLK2 percentage of activity [19]: −17% | DRAK1 percentage of activity [20]: 38% | TAO2 percentage of activity [28]: 3% | MRCKB percentage of activity [29]: 0% | CK1 gamma 3 percentage of activity [21]: 0% | Blk(m) percentage of activity [26]: 0% | MLCK percentage of activity [22]: −3% | PDGFRB (V561D) percentage of activity [22]: −4% | PRKCB2 percentage of activity [22]: 1%
